Experimental data published in patent US20050239656A1, “Pyridine compounds or salts thereof and herbicides containing the same” (priority 2002, published 2005).

What was measured:
redroot pigweed [1] = experiment: Test Example 2: soil surface treatment, upland pot test; type: in vivo, Amaranthus retroflexus L.; conditions: observed 20th to 28th day
Outline: (§1)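 Pots (1/170,000 ha) filled with upland field soil were seeded, then treated on the following day by spraying the soil surface with diluted formulation (1,500 L/ha) at a fixed a.i. dose. Control was rated visually on a 0–100% scale at 20–28 days.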

velvetleaf [2] = experiment: as above; type: in vivo, Abutilon theophrasti MEDIC.; conditions: observed 20th to 28th day
Outline: as §1

green foxtail [3] = experiment: as above; type: in vivo, Setaria viridis L.; conditions: observed 20th to 28th day
Outline: as §1

barnyardgrass [4] = experiment: as above; type: in vivo, Echinochloa crus-galli L.; conditions: observed 20th to 28th day
Outline: as §1

rice [5] = experiment: as above; type: in vivo, Oryza sativa L.; conditions: observed 20th to 28th day
Outline: as §1

wheat [6] = experiment: as above; type: in vivo, Triticum spp.; conditions: observed 20th to 28th day
Outline: as §1

crabgrass [7] = experiment: as above; type: in vivo, Digitaria sanguinalis L.; conditions: observed 20th to 28th day
Outline: as §1

barnyardgrass [8] = experiment: Test Example 3: paddy pot test, application under submerged conditions; type: in vivo, Echinochloa crus-galli L.; conditions: active ingredient 500 g/ha; submerged application at 0.5 leaf stage; visually observed 14 days after application; 0 = non-treated, 100 = complete kill
Outline: (§2)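 Seeds were sown in flooded paddy soil (0.5–1 cm water), wapato tubers were planted 1–2 days later, and water was then held at 3–4 cm. Diluted wettable powder or emulsifiable concentrate was pipetted into the water at the 0.5 leaf or primary leaf stage. Growth control was visually scored at 14 days (0–100%).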

rice (var. Nihonbare) = experiment: Test Example 3: paddy pot test, transplanted rice; type: in vivo, Oryza sativa L.; conditions: active ingredient 500 g/ha, applied 4th day after transplantation, visually observed 21st day after application, 0 = non-treated, 100 = complete kill
Outline: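 Rice (2-leaf stage) was transplanted 3 cm deep into puddled, leveled paddy soil under 3–4 cm flooding. On day 4 after transplanting, diluted wettable powder or emulsifiable concentrate was pipetted onto the water at a predetermined active-ingredient dose. Growth control (0 = untreated, 100 = complete kill) was scored visually 21 days later.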

japanese bulrush = experiment: Test Example 3: paddy pot test, application under submerged conditions; type: in vivo, Scirpus juncoides; conditions: active ingredient 500 g/ha; submerged application at 0.5 leaf stage; visually observed 14 days after application; 0 = non-treated, 100 = complete kill
Outline: as §2

corn [9] = experiment: Test Example 2: soil surface treatment, upland pot test; type: in vivo, Zea mays L.; conditions: observed 20th to 28th day
Outline: as §1

soybean [10] = experiment: as above; type: in vivo, Glycine max Merr.; conditions: observed 20th to 28th day
Outline: as §1

japanese ribbon wapato = experiment: Test Example 3: paddy pot test, application under submerged conditions; type: in vivo, Sagittaria pygniaea; conditions: active ingredient 500 g/ha; submerged application at primary leaf stage; visually observed 14 days after application; 0 = non-treated, 100 = complete kill
Outline: as §2

prickly sida [11] = experiment: Test Example 2: soil surface treatment, upland pot test; type: in vivo, Sida spinosa L.; conditions: observed 20th to 28th day
Outline: as §1

wheat [12] = experiment: Test Example 1: foliage treatment, upland pot test; type: in vivo, Triticum spp.; conditions: crop, active ingredient 1000 g/ha, observed 18th to 23rd day, 0 = non-treated, 100 = complete kill
Text: Upland field soil was put into a 1/170,000 ha pot, and seed of various plants were sown. Then, when the plants reached predetermined leaf stages ((1) barnyardgrass: 1.3 to 2.8 leaf stages, (2) crabgrass: 1.0 to 2.8 leaf stages, (3) green foxtail: 1.3 to 2.6 leaf stages, (4) redroot pigweed: 0.1 to 1.2 leaf stages, (5) prickly sida: 0.1 to 1.2 leaf stages, (6) velvetleaf: 0.1 to 1.2 leaf stages, (7) tall morningglory: 0.1 to 1.5 leaf stages, (8) rice: 1.2 to 2.6 leaf stages, (9) wheat: 1.3 to 2.4 leaf stages, (10) corn, 2.1 to 3.2 leaf stages, (11) soybean: 0.1 to 0.4 leaf stage), a wettable powder or emulsifiable concentrate having the compound of the present invention formulated in accordance with a usual formulation method, was weighed so that the active ingredient would be a predetermined amount, and diluted with water in an amount of 500 L/ha. To the diluted solution, 0.1% (v/v) of agricultural spreader was added. The herbicide thus adjusted was applied by a small size sprayer for foliage treatment. On the 18th to 23rd days after the application of the herbicide, the growth of the respective plants was visually observed, and the herbicidal effects were evaluated by the growth controlling degrees (%) ranging from 0 (equivalent to the non-treated plot) to 100 (complete kill), whereby the results shown in Table 3, were obtained.

rice [13] = experiment: Test Example 1: foliage treatment, upland pot test; type: in vivo, Oryza sativa L.; conditions: crop, active ingredient 1000 g/ha, observed 18th to 23rd day, 0 = non-treated, 100 = complete kill
Outline: (§3)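 Applied as a post-emergence foliar spray: formulated compound diluted to 500 L/ha with spreader at 0.1% (v/v). Treatment timing—rice at 1.2–2.6, wheat at 1.3–2.4, barnyardgrass at 1.3–2.8, soybean at 0.1–0.4 leaf stage. Scored visually on a 0–100% control scale after 18–23 days.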

corn [14] = experiment: Test Example 1: foliage treatment, upland pot test; type: in vivo, Zea mays L.; conditions: crop, active ingredient 1000 g/ha, observed 18th to 23rd day, 0 = non-treated, 100 = complete kill
Outline: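 Corn seeds were sown in upland field soil held in a 1/170,000 ha pot and grown to the 2.1 to 3.2 leaf stage. A wettable powder or emulsifiable concentrate of the test compound was diluted with water at 500 L/ha, given 0.1% (v/v) agricultural spreader, and sprayed onto the foliage with a small sprayer. Growth controlling degree (%) was scored visually 18th to 23rd days later, from 0 (non-treated) to 100 (complete kill).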

barnyardgrass [15] = experiment: Test Example 1: foliage treatment, upland pot test; type: in vivo, Echinochloa crus-galli L.; conditions: active ingredient 1000 g/ha, observed 18th to 23rd day, 0 = non-treated, 100 = complete kill
Outline: as §3

prickly sida [16] = experiment: Test Example 1: foliage treatment, upland pot test; type: in vivo, Sida spinosa L.; conditions: active ingredient 1000 g/ha, observed 18th to 23rd day, 0 = non-treated, 100 = complete kill
soybean [17] = experiment: Test Example 1: foliage treatment, upland pot test; type: in vivo, Glycine max Merr.; conditions: crop, active ingredient 1000 g/ha, observed 18th to 23rd day, 0 = non-treated, 100 = complete kill
Outline: as §3

velvetleaf [18] = experiment: Test Example 1: foliage treatment, upland pot test; type: in vivo, Abutilon theophrasti MEDIC.; conditions: active ingredient 1000 g/ha, observed 18th to 23rd day, 0 = non-treated, 100 = complete kill
redroot pigweed [19] = experiment: Test Example 1: foliage treatment, upland pot test; type: in vivo, Amaranthus retroflexus L.; conditions: active ingredient 1000 g/ha, observed 18th to 23rd day, 0 = non-treated, 100 = complete kill
crabgrass [20] = experiment: Test Example 1: foliage treatment, upland pot test; type: in vivo, Digitaria sanguinalis L.; conditions: active ingredient 1000 g/ha, observed 18th to 23rd day, 0 = non-treated, 100 = complete kill
green foxtail [21] = experiment: Test Example 1: foliage treatment, upland pot test; type: in vivo, Setaria viridis L.; conditions: active ingredient 1000 g/ha, observed 18th to 23rd day, 0 = non-treated, 100 = complete kill
[22] = active ingredient 1000 g/ha, 0 = non-treated, 100 = complete kill

SMILES	Growth controlling degree (%) Redroot pigweed (redroot pigweed [1]; active ingredient 1000 g/ha) [%]	Growth controlling degree (%) Velvetleaf (velvetleaf [2]; active ingredient 1000 g/ha) [%]	Growth controlling degree (%) Green foxtail (green foxtail [3]; active ingredient 1000 g/ha) [%]	Growth controlling degree (%) Barnyardgrass (barnyardgrass [4]; [22]) [%]	Growth controlling degree (%) Rice (rice [5]; active ingredient 1000 g/ha) [%]	Growth controlling degree (%) wheat (wheat [6]; active ingredient 1000 g/ha) [%]	Growth controlling degree (%) Crabgrass (crabgrass [7]; active ingredient 1000 g/ha) [%]	Growth controlling degree (%) Barnyardgrass (barnyardgrass [8]) [%]	Growth controlling degree (%) Rice (rice (var. Nihonbare)) [%]	Growth controlling degree (%) Japanese bulrush (japanese bulrush) [%]	Growth controlling degree (%) Corn (corn [9]; active ingredient 1000 g/ha) [%]	Growth controlling degree (%) Soyabean (soybean [10]; active ingredient 1000 g/ha) [%]	Growth controlling degree (%) Japanese ribbon wapato (japanese ribbon wapato) [%]	Growth controlling degree (%) Prickly sida (prickly sida [11]; active ingredient 1000 g/ha) [%]	Growth controlling degree (%) Redroot pigweed (redroot pigweed [1]; active ingredient 2000 g/ha) [%]	Growth controlling degree (%) Velvetleaf (velvetleaf [2]; active ingredient 2000 g/ha) [%]	Growth controlling degree (%) Green foxtail (green foxtail [3]; active ingredient 2000 g/ha) [%]	Growth controlling degree (%) Barnyardgrass (barnyardgrass [4]; active ingredient 2000 g/ha) [%]	Growth controlling degree (%) Rice (rice [5]; active ingredient 2000 g/ha) [%]	Growth controlling degree (%) wheat (wheat [6]; active ingredient 2000 g/ha) [%]	other results
CC(C(=O)NC(c1cnccc1C(F)(F)F)C(C)C)c1ccccc1 (stereo not drawn) [Compound I-11]	0	0	90	98	0	50	90	60	10	90	10	0	30	0	–	–	–	–	–	–	–
CCC(=O)NC(c1cnccc1C(F)(F)F)c1cccc2ccccc12 (stereo not drawn) [Compound I-42]	0	0	90	70	0	30	90	70	30	95	10	0	10	0	–	–	–	–	–	–	–
COC(=O)NC(c1cnccc1C(F)(F)F)c1cccc2ccccc12 (stereo not drawn) [Compound I-45]	40	40	60	0	50	30	90	85	30	90	20	0	60	40	–	–	–	–	–	–	–
CN(C(=O)Cc1ccccc1)C(c1cnccc1C(F)(F)F)c1cccc2ccccc12 (stereo not drawn) [Compound I-47]	–	–	–	–	–	–	–	98	10	30	–	–	0	–	0	20	80	60	0	20	Growth controlling degree (%) Crabgrass (crabgrass [7]; active ingredient 2000 g/ha): 90%; Growth controlling degree (%) Corn (corn [9]; active ingredient 2000 g/ha): 10%; Growth controlling degree (%) Soyabean (soybean [10]; active ingredient 2000 g/ha): 10%; Growth controlling degree (%) Prickly sida (prickly sida [11]; active ingredient 2000 g/ha): 40%
CN(C(=O)Cc1cccs1)C(c1cnccc1C(F)(F)F)c1cccc2ccccc12 (stereo not drawn) [Compound I-48]	–	–	–	–	–	–	–	100	10	30	–	–	0	–	30	40	100	20	20	30	Growth controlling degree (%) Crabgrass (crabgrass [7]; active ingredient 2000 g/ha): 70%; Growth controlling degree (%) Corn (corn [9]; active ingredient 2000 g/ha): 10%; Growth controlling degree (%) Soyabean (soybean [10]; active ingredient 2000 g/ha): 0%; Growth controlling degree (%) Prickly sida (prickly sida [11]; active ingredient 2000 g/ha): 20%
CC(C)C(c1cnccc1C(F)(F)F)N(C)C(=O)C=Cc1cccc2ccccc12 (stereo not drawn) [I-187]	–	–	–	–	–	–	–	100	0	10	–	–	20	–	–	–	–	–	–	–	Growth controlling degree (%) wheat (wheat [12]): 10%; Growth controlling degree (%) Rice (rice [13]): 30%; Growth controlling degree (%) Corn (corn [14]): 80%; Growth controlling degree (%) Barnyardgrass (barnyardgrass [15]): 60%; Growth controlling degree (%) Prickly sida (prickly sida [16]): 90%; Growth controlling degree (%) Soybean (soybean [17]): 60%; Growth controlling degree (%) Velvetleaf (velvetleaf [18]): 40%; Growth controlling degree (%) Redroot pigweed (redroot pigweed [19]): 80%; Growth controlling degree (%) Crabgrass (crabgrass [20]): 95%; Growth controlling degree (%) Green foxtail (green foxtail [21]): 60%
